# Assay results reported in ChEMBL document CHEMBL5291721, “A preclinical secondary pharmacology resource illuminates target-adverse drug reaction associations of marketed drugs” (Nat Commun, 2023).
# Legend:
# [1] = biological target: Voltage-gated inwardly rectifying potassium channel KCNH2 (Homo sapiens, UniProt Q12809); format: functional
# [2] = biological target: D(1A) dopamine receptor (Homo sapiens, UniProt P21728)
# [3] = biological target: 5-hydroxytryptamine receptor 2B (Homo sapiens, UniProt P41595); format: functional, cell-based
# Sequence of 5-hydroxytryptamine receptor 2B (P41595 whole entry): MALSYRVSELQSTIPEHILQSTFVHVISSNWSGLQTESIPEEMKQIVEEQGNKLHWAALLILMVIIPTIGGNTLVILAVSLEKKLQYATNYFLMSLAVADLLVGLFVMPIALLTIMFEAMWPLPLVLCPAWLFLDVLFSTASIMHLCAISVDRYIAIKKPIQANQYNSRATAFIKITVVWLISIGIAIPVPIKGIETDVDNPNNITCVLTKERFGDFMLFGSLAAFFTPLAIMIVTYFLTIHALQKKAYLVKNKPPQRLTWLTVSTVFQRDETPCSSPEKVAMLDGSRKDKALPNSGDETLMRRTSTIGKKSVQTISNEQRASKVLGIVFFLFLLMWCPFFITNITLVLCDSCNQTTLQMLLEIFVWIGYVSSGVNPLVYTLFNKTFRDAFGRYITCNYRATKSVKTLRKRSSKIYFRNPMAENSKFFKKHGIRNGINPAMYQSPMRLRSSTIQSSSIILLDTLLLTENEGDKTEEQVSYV
# [4] = biological target: 3',5'-cyclic-AMP phosphodiesterase 4A (Homo sapiens, UniProt P27815); format: functional
# [5] = biological target: T1, Muscarinic acetylcholine receptor M2 (Homo sapiens, UniProt P08172)
# T1 sequence (P08172 whole entry): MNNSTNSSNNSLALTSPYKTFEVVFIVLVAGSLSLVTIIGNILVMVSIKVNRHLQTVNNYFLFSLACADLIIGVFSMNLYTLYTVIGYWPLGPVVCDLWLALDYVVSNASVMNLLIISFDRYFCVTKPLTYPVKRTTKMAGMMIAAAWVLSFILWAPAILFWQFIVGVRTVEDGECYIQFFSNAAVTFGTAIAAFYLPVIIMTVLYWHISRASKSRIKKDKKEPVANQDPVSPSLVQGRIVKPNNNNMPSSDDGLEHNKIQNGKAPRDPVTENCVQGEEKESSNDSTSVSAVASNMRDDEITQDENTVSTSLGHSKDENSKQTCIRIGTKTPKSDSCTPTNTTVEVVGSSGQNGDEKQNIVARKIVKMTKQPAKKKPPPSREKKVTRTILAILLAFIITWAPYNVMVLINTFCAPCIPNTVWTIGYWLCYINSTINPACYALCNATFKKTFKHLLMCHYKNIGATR
# [6] = biological target: T2, Progesterone receptor (Homo sapiens, UniProt P06401)
# T2 sequence (P06401 whole entry): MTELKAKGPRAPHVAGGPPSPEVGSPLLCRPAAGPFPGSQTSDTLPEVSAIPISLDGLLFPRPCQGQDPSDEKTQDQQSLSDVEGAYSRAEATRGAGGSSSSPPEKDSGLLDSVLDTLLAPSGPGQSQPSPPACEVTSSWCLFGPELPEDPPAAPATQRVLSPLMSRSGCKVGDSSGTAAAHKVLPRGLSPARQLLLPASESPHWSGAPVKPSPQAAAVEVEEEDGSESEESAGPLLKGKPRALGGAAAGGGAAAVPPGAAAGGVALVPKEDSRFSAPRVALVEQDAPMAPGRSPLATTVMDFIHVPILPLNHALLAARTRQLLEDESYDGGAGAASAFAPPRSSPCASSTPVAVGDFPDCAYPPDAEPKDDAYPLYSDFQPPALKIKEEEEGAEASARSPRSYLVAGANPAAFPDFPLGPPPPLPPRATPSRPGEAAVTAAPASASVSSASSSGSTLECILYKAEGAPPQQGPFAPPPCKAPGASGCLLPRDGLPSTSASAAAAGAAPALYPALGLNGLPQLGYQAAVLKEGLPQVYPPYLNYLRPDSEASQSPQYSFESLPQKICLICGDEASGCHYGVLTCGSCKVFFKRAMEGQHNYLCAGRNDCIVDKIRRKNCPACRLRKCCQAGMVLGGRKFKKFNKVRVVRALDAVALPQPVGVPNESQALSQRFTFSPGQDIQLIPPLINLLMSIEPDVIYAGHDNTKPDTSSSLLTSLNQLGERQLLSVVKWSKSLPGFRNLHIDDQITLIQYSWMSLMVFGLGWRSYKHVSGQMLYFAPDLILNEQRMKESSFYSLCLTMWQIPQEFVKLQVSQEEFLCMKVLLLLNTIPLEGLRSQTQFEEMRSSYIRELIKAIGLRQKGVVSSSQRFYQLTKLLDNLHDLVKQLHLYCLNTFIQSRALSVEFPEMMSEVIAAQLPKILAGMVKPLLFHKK
# [7] = biological target: Acetylcholinesterase (Homo sapiens, UniProt P22303); format: functional
# Sequence of Acetylcholinesterase (P22303 whole entry): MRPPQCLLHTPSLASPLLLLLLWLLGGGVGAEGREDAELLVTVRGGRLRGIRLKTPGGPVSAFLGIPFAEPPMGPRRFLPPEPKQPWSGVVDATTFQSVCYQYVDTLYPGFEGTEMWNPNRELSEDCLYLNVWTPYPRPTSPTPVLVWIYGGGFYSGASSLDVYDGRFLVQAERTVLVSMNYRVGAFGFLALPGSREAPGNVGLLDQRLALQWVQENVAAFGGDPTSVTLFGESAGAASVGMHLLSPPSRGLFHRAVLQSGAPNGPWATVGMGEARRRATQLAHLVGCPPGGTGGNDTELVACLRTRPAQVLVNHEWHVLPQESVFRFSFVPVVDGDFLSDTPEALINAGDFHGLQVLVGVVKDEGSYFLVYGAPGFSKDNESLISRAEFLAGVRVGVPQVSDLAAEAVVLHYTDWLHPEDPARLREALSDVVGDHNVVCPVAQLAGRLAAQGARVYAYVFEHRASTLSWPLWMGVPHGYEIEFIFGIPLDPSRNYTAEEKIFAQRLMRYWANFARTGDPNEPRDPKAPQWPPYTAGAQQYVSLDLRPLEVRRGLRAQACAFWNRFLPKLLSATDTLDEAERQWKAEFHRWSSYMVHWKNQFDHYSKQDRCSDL
# [8] = biological target: Prothrombin (Homo sapiens, UniProt P00734); format: functional
# [9] = biological target: cGMP-inhibited 3',5'-cyclic phosphodiesterase 3A (Homo sapiens, UniProt Q14432); format: functional
# Sequence of cGMP-inhibited 3',5'-cyclic phosphodiesterase 3A (Q14432 whole entry): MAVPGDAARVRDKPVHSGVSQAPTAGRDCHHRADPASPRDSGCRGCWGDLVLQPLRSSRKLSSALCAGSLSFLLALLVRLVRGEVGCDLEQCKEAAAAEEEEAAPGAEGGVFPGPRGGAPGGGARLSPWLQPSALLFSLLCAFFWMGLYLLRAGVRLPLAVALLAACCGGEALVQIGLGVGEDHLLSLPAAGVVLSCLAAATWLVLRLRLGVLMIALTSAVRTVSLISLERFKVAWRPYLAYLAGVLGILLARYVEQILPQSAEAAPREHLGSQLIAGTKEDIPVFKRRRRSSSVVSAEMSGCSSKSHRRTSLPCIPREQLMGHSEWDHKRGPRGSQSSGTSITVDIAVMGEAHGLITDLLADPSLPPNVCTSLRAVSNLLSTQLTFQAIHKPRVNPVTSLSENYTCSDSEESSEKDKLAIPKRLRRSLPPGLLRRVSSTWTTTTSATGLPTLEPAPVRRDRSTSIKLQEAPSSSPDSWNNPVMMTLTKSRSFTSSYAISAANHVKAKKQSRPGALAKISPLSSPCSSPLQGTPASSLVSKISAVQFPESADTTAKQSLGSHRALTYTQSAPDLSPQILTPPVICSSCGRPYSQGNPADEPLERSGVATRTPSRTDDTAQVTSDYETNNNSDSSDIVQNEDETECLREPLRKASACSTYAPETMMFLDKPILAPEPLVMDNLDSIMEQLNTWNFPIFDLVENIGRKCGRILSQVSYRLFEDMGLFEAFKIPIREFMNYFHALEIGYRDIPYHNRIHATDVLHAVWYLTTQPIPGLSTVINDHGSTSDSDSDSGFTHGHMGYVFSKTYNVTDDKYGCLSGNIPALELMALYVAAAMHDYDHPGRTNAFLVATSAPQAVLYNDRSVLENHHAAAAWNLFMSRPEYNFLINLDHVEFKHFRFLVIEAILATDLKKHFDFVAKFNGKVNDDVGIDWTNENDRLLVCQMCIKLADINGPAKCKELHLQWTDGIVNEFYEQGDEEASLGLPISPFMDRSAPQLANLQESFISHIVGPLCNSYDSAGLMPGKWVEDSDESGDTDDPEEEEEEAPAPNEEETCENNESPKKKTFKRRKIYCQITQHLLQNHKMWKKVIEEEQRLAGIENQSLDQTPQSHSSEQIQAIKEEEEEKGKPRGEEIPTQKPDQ
# [10] = biological target: T3, Alpha-2A adrenergic receptor (Homo sapiens, UniProt P08913)
# T3 sequence (P08913 whole entry): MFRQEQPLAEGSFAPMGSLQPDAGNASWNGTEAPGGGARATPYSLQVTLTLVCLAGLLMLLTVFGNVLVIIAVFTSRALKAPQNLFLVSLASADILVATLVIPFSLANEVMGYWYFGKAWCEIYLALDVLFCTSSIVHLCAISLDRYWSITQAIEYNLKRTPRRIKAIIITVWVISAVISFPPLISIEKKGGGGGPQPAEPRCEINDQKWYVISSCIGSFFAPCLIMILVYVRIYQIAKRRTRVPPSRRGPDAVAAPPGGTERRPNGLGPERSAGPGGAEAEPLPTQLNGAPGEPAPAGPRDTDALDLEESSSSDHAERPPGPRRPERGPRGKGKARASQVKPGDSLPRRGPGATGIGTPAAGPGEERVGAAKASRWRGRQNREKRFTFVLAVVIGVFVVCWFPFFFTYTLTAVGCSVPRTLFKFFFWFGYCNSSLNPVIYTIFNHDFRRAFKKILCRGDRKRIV
# [11] = biological target: Histamine H3 receptor (Homo sapiens, UniProt Q9Y5N1)
# Sequence of Histamine H3 receptor (Q9Y5N1 whole entry): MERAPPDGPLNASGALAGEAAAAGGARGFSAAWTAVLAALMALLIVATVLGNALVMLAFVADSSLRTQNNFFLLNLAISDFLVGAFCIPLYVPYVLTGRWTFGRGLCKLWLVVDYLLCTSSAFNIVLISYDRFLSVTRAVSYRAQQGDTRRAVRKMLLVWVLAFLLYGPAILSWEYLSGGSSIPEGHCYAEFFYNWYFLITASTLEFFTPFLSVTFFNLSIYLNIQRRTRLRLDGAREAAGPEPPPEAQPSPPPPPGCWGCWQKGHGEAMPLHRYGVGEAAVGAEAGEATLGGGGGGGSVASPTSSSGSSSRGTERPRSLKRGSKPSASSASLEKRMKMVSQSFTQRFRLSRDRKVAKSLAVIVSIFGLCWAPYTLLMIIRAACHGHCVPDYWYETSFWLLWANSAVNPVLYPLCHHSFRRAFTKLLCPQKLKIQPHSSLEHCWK
# [12] = biological target: Mu-type opioid receptor (Homo sapiens, UniProt P35372)
# [13] = biological target: T4, Alpha-1A adrenergic receptor (Homo sapiens, UniProt P35348); format: functional, cell-based
# T4 sequence (P35348 whole entry): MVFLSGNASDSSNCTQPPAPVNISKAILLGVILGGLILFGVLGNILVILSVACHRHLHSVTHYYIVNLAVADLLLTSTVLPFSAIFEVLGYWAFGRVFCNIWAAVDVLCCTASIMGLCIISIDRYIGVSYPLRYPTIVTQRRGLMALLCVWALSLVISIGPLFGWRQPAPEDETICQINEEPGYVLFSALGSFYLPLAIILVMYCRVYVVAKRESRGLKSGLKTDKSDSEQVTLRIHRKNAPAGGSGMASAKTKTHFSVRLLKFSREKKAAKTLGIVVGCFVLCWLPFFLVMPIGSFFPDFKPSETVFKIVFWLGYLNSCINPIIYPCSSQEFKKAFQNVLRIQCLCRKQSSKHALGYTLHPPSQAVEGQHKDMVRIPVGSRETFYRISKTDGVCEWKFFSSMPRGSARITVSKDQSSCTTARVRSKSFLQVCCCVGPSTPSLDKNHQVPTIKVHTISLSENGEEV
# [14] = biological target: Sodium-dependent dopamine transporter (Homo sapiens, UniProt Q01959)
# Sequence of Sodium-dependent dopamine transporter (Q01959 whole entry): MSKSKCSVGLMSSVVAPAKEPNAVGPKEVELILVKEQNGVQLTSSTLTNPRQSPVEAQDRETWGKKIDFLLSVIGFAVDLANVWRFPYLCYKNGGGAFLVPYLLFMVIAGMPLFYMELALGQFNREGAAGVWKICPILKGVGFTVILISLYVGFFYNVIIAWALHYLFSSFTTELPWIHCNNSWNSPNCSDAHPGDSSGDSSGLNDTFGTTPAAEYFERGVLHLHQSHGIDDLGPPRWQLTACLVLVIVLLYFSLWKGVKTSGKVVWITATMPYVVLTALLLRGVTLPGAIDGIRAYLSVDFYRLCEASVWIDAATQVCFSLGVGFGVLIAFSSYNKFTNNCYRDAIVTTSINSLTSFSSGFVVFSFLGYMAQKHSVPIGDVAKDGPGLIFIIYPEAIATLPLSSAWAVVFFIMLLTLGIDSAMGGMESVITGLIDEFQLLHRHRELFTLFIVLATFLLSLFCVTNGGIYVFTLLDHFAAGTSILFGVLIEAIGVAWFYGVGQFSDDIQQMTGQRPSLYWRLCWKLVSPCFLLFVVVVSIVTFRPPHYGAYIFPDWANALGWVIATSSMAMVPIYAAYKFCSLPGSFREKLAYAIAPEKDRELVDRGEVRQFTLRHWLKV
# [15] = biological target: Prostaglandin G/H synthase 1 (Homo sapiens, UniProt P23219); format: functional
# Also: assay procedure not described here.
# Sequence of D(1A) dopamine receptor (P21728 whole entry): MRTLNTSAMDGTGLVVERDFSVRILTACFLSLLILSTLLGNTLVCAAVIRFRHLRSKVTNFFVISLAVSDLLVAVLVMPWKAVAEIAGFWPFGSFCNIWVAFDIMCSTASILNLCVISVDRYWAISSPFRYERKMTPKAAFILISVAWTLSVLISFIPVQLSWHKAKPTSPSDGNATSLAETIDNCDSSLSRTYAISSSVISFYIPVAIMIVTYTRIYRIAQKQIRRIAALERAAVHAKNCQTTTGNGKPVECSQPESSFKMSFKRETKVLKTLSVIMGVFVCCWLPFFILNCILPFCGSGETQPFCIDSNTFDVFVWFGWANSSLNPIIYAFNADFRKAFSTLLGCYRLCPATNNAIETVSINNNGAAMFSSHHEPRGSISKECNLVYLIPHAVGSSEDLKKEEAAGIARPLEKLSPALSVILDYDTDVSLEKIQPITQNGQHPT
# Sequence of Voltage-gated inwardly rectifying potassium channel KCNH2 (Q12809 whole entry): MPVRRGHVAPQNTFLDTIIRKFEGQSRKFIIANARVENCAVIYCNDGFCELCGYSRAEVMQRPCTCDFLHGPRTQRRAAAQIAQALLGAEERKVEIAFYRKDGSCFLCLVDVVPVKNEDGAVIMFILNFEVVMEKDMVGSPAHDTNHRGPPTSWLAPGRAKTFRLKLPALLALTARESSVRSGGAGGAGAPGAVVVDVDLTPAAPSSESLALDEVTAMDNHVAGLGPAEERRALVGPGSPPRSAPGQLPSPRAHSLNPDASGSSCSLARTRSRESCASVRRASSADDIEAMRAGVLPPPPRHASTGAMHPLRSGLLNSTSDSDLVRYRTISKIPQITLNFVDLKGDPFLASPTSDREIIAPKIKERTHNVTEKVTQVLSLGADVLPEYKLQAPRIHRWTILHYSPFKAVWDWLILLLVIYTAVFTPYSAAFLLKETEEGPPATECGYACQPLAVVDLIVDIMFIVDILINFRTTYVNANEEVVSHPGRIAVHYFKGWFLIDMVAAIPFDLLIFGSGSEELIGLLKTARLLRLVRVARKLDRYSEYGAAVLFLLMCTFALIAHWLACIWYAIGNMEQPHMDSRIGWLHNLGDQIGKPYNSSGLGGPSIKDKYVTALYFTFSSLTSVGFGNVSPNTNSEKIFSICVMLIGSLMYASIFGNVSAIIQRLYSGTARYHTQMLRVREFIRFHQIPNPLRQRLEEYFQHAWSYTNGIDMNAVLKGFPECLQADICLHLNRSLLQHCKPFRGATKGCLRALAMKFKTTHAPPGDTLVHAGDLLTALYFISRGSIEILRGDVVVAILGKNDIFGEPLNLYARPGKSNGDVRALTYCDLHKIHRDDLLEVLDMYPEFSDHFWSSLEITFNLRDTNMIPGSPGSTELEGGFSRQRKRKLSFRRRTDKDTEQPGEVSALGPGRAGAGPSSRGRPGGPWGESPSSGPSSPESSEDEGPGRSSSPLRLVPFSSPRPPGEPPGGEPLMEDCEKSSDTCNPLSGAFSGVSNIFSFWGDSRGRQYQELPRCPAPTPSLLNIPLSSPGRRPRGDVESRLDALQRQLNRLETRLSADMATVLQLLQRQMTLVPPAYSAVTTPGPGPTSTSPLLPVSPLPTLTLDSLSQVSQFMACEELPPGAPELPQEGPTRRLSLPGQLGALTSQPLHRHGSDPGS
smiles,measurement,setting,value
CCOc1nc2cccc(C(=O)O)c2n1Cc1ccc(-c2ccccc2-c2nnn[nH]2)cc1,AC50,[1],> 30 µM
CC(=O)Nc1ccc(CC(=O)O)cc1 [ACTARIT],AC50,[1],> 30 µM
CC(C(=O)O)c1ccc2oc(-c3ccc(Cl)cc3)nc2c1 (stereo not given) [BENOXAPROFEN],AC50,[1],> 30 µM
Nc1c(CC(=O)O)cccc1C(=O)c1ccc(Br)cc1 [BROMFENAC],AC50,[2],> 30 µM
same,AC50,[3],> 30 µM
same,AC50,[4],> 30 µM
same,AC50,[5],> 30 µM
same,AC50,[6],> 30 µM
same,AC50,[7],> 30 µM
same,AC50,[8],> 30 µM
same,AC50,[9],> 30 µM
same,AC50,[10],> 30 µM
same,AC50,[11],> 30 µM
same,AC50,[12],> 30 µM
same,AC50,[13],> 30 µM
same,AC50,[1],> 30 µM
same,AC50,[14],> 30 µM
CC1(C)S[C@@H]2[C@H](NC(=O)C(C(=O)O)c3ccccc3)C(=O)N2[C@H]1C(=O)O (stereo not given in full) [CARBENICILLIN],AC50,[1],> 30 µM
Cc1nnc(SCC2=C(C(=O)O)N3C(=O)[C@@H](NC(=O)Cn4cnnn4)[C@H]3SC2)s1 [CEFAZOLIN],AC50,[1],> 300 µM
CC=CC1=C(C(=O)O)N2C(=O)[C@@H](NC(=O)[C@H](N)c3ccc(O)cc3)[C@H]2SC1 [CEFPROZIL],AC50,[1],> 30 µM
CC(C)(O/N=C(\C(=O)N[C@@H]1C(=O)N2C(C(=O)[O-])=C(C[n+]3ccccc3)CS[C@H]12)c1csc(N)n1)C(=O)O [CEFTAZIDIME],AC50,[1],> 300 µM
CC(C)NC(=N)NC(=N)Nc1ccc(Cl)c(Cl)c1 [CHLORPROGUANIL],AC50,[2],1.77 µM
same,AC50,[3],> 30 µM
same,AC50,[4],> 30 µM
same,AC50,[15],> 30 µM
same,AC50,[5],29.7 µM
same,AC50,[6],> 30 µM
same,AC50,[7],> 30 µM
same,AC50,[8],> 30 µM
same,AC50,[9],> 30 µM
same,AC50,[10],5.59 µM
same,AC50,[11],> 30 µM
same,AC50,[12],11.2 µM
same,AC50,[1],2.6 µM
same,AC50,[14],1.86 µM
CCCNC(=O)NS(=O)(=O)c1ccc(Cl)cc1 [CHLORPROPAMIDE],AC50,[1],> 30 µM
Clc1ccc(Cn2c(CN3CCCC3)nc3ccccc32)cc1 [CLEMIZOLE],AC50,[1],0.86 µM
CCC(=O)O[C@]1(C(=O)CCl)[C@@H](C)C[C@H]2[C@@H]3CCC4=CC(=O)C=C[C@]4(C)[C@@]3(F)[C@@H](O)C[C@@]21C [CLOBETASOL PROPIONATE],AC50,[1],> 30 µM
O=C(O)Cc1ccccc1Nc1c(Cl)cccc1Cl [DICLOFENAC],AC50,[2],> 3 µM
same,AC50,[3],> 3 µM
same,AC50,[4],> 3 µM
same,AC50,[5],> 3 µM
same,AC50,[6],> 3 µM
same,AC50,[7],> 3 µM
same,AC50,[8],> 3 µM
same,AC50,[9],> 3 µM
same,AC50,[10],> 3 µM
same,AC50,[11],> 3 µM
same,AC50,[12],> 3 µM
same,AC50,[13],> 3 µM
same,AC50,[1],> 30 µM
same,AC50,[14],> 3 µM
CN[C@@H]1[C@H](O[C@H]2[C@H](O[C@H]3[C@H](O)[C@@H](O)[C@H](NC(=N)N)[C@@H](O)[C@@H]3NC(=N)N)O[C@@H](C)[C@]2(O)CO)O[C@@H](CO)[C@H](O)[C@H]1O [DIHYDROSTREPTOMYCIN],AC50,[2],> 30 µM
same,AC50,[3],> 30 µM
same,AC50,[4],> 30 µM
same,AC50,[15],> 30 µM
same,AC50,[5],> 30 µM
same,AC50,[6],> 30 µM
same,AC50,[7],> 30 µM
same,AC50,[8],> 30 µM
same,AC50,[9],> 30 µM
same,AC50,[10],> 30 µM
same,AC50,[11],> 30 µM
same,AC50,[12],> 30 µM
same,AC50,[14],> 30 µM
